Laboratory results as given in US20120196766A1, “Therapeutic Use of Farnesyltransferase Inhibitors and Methods of Monitoring the Efficacy Thereof” (priority 2004, published 2012).

System: THP-1 cells
Test: cDNA microarray analysis of LPS-induced gene transcription in THP-1 cells
Type: cell-based, Human
Conditions: for Fold-change (tipifarnib/LPS vs LPS) ABCB8 / Fold-change (tipifarnib/LPS vs LPS) B2M / Fold-change (tipifarnib/LPS vs LPS) C3AR1 / Fold-change (tipifarnib/LPS vs LPS) CCL2 / Fold-change (tipifarnib/LPS vs LPS) CCL3 / Fold-change (tipifarnib/LPS vs LPS) CCL4 / Fold-change (tipifarnib/LPS vs LPS) CCL8 / Fold-change (tipifarnib/LPS vs LPS) CCND1 / Fold-change (tipifarnib/LPS vs LPS) CXCL11 / Fold-change (tipifarnib/LPS vs LPS) GNPNAT1 / Fold-change (tipifarnib/LPS vs LPS) IER3 / Fold-change (tipifarnib/LPS vs LPS) IFI16 / Fold-change (tipifarnib/LPS vs LPS) IFIT1 / Fold-change (tipifarnib/LPS vs LPS) IFNB1 / Fold-change (tipifarnib/LPS vs LPS) IGFBP3 / Fold-change (tipifarnib/LPS vs LPS) IL1B / Fold-change (tipifarnib/LPS vs LPS) IL1RN / Fold-change (tipifarnib/LPS vs LPS) IL8 / Fold-change (tipifarnib/LPS vs LPS) KCNK17 / Fold-change (tipifarnib/LPS vs LPS) LAP3 / Fold-change (tipifarnib/LPS vs LPS) LGR7 / Fold-change (tipifarnib/LPS vs LPS) MMP9 / Fold-change (tipifarnib/LPS vs LPS) MX1 / Fold-change (tipifarnib/LPS vs LPS) MYD88 / Fold-change (tipifarnib/LPS vs LPS) NEXN / Fold-change (tipifarnib/LPS vs LPS) NFKB2 / Fold-change (tipifarnib/LPS vs LPS) PLAUR / Fold-change (tipifarnib/LPS vs LPS) PTX3 / Fold-change (tipifarnib/LPS vs LPS) S100A9 / Fold-change (tipifarnib/LPS vs LPS) STAT1 / Fold-change (tipifarnib/LPS vs LPS) TAP1 / Fold-change (tipifarnib/LPS vs LPS) TAP2 / Fold-change (tipifarnib/LPS vs LPS) TRIM22 / Fold-change (tipifarnib/LPS vs LPS) UBE2L6 / Fold-change (tipifarnib/LPS vs LPS) LY6E / Fold-change (tipifarnib/LPS vs LPS) TIMP3: LPS 100 ng/ml, tipifarnib 5 μM
Experimental: THP-1 cells were cultured in RPMI1640 medium, supplemented with 10% FBS/100 units/ml Penicillin/10 μg/ml Streptomycin at 37° C., under 5% CO2. […] For the untreated control group (no LPS, no compound) and LPS alone group, equivalent volumes of DMSO were added to the medium. Cells were cultured at 37° C. and pellets were collected at 0 hr, 1 hr, 3 hr, 6 hr, 12 hr & 24 hr. Cell pellets were stored at −80° C. if RNA isolation was not conducted immediately. For experiments to study cytokine secretion in culture supernatants, THP-1 cells were washed twice with PBS, resuspended at 3.4×10^5/ml and cultured in 96-well plates at 250 μL, per well at 37° C. […] Supernatants were collected at different time points as indicated in the figures and were kept at ≦−20° C. until analysis of cytokine production.
Total RNA was isolated using RNeasy mini kit from QIAGEN (Valencia, Calif.) according to the manufacturer's instructions. RNA samples were stored at −80° C.
Five μg of total RNA was linearly amplified to double-stranded cDNA using T7-based amplification. The cDNA was purified using the QIAquick 96 PCR purification kit (QIAGEN Valencia, Calif.), and used to generate amplified (a) RNA using AmpliScribe™ T7 High Yield Transcription Kit (Epicentre, Madison, Wis.). Ten μg of purified aRNA was reverse transcribed to cDNA using the SuperScript RTII kit (Invitrogen) and labeled by direct incorporation of Cy3-dCTP. The generated cDNA probe was used for hybridizing to cDNA microarrays.
Each clone was spotted in duplicate on the array.

Structure (SMILES): Cn1cncc1C(N)(c1ccc(Cl)cc1)c1ccc2c(c1)c(-c1cccc(Cl)c1)cc(=O)n2C (single isomer, unassigned; (+)) [tipifarnib, (+)-6-[amino(4-chlorophenyl)(1-methyl-1H-imidazol-5-yl)methyl]-4-(3-chlorophenyl)-1-methyl-2(1H)-quinolinone]
- Fold-change (tipifarnib/LPS vs LPS) ABCB8 (1 hr): 1.07
- Fold-change (tipifarnib/LPS vs LPS) B2M (1 hr): 1.15
- Fold-change (tipifarnib/LPS vs LPS) C3AR1 (1 hr): 1.00
- Fold-change (tipifarnib/LPS vs LPS) CCL2 (1 hr): −1.07
- Fold-change (tipifarnib/LPS vs LPS) CCL3 (1 hr): −1.07
- Fold-change (tipifarnib/LPS vs LPS) CCL4 (1 hr): 1.07
- Fold-change (tipifarnib/LPS vs LPS) CCL8 (1 hr): −1.07
- Fold-change (tipifarnib/LPS vs LPS) CCND1 (1 hr): 1.00
- Fold-change (tipifarnib/LPS vs LPS) CXCL11 (1 hr): 1.00
- Fold-change (tipifarnib/LPS vs LPS) GNPNAT1 (1 hr): 1.00
- Fold-change (tipifarnib/LPS vs LPS) IER3 (1 hr): 1.32
- Fold-change (tipifarnib/LPS vs LPS) IFI16 (1 hr): 1.07
- Fold-change (tipifarnib/LPS vs LPS) IFIT1 (1 hr): 1.00
- Fold-change (tipifarnib/LPS vs LPS) IFNB1 (1 hr): −1.23
- Fold-change (tipifarnib/LPS vs LPS) IGFBP3 (1 hr): 1.00
- Fold-change (tipifarnib/LPS vs LPS) IL1B (1 hr): 1.07
- Fold-change (tipifarnib/LPS vs LPS) IL1RN (1 hr): −1.15
- Fold-change (tipifarnib/LPS vs LPS) IL8 (1 hr): −1.07
- Fold-change (tipifarnib/LPS vs LPS) KCNK17 (1 hr): −1.07
- Fold-change (tipifarnib/LPS vs LPS) LAP3 (1 hr): −1.07
- Fold-change (tipifarnib/LPS vs LPS) LGR7 (1 hr): 1.23
- Fold-change (tipifarnib/LPS vs LPS) MMP9 (1 hr): −1.07
- Fold-change (tipifarnib/LPS vs LPS) MX1 (1 hr): 1.00
- Fold-change (tipifarnib/LPS vs LPS) MYD88 (1 hr): 1.07
- Fold-change (tipifarnib/LPS vs LPS) NEXN (1 hr): 1.00
- Fold-change (tipifarnib/LPS vs LPS) NFKB2 (1 hr): −1.07
- Fold-change (tipifarnib/LPS vs LPS) PLAUR (1 hr): 1.00
- Fold-change (tipifarnib/LPS vs LPS) PTX3 (1 hr): 1.15
- Fold-change (tipifarnib/LPS vs LPS) S100A9 (1 hr): 1.00
- Fold-change (tipifarnib/LPS vs LPS) STAT1 (1 hr): 1.23
- Fold-change (tipifarnib/LPS vs LPS) TAP1 (1 hr): −1.23
- Fold-change (tipifarnib/LPS vs LPS) TAP2 (1 hr): 1.07
- Fold-change (tipifarnib/LPS vs LPS) TRIM22 (1 hr): 1.00
- Fold-change (tipifarnib/LPS vs LPS) UBE2L6 (1 hr): 1.00
- Fold-change (tipifarnib/LPS vs LPS) ABCB8 (3 hr): 1.00
- Fold-change (tipifarnib/LPS vs LPS) B2M (3 hr): 1.00
- Fold-change (tipifarnib/LPS vs LPS) C3AR1 (3 hr): 1.07
- Fold-change (tipifarnib/LPS vs LPS) CCL2 (3 hr): −1.32
- Fold-change (tipifarnib/LPS vs LPS) CCL3 (3 hr): 1.00
- Fold-change (tipifarnib/LPS vs LPS) CCL8 (3 hr): 1.00
- Fold-change (tipifarnib/LPS vs LPS) CCND1 (3 hr): −1.07
- Fold-change (tipifarnib/LPS vs LPS) CXCL11 (3 hr): −1.07
- Fold-change (tipifarnib/LPS vs LPS) GNPNAT1 (3 hr): 1.00
- Fold-change (tipifarnib/LPS vs LPS) IFI16 (3 hr): 1.00
- Fold-change (tipifarnib/LPS vs LPS) IFIT1 (3 hr): 1.00
- Fold-change (tipifarnib/LPS vs LPS) IFNB1 (3 hr): −1.15
- Fold-change (tipifarnib/LPS vs LPS) IGFBP3 (3 hr): −1.07
- Fold-change (tipifarnib/LPS vs LPS) IL1B (3 hr): 1.32
- Fold-change (tipifarnib/LPS vs LPS) IL1RN (3 hr): −1.15
- Fold-change (tipifarnib/LPS vs LPS) IL8 (3 hr): −1.23
- Fold-change (tipifarnib/LPS vs LPS) KCNK17 (3 hr): −1.15
- Fold-change (tipifarnib/LPS vs LPS) LAP3 (3 hr): −1.07
- Fold-change (tipifarnib/LPS vs LPS) LGR7 (3 hr): −1.15
- Fold-change (tipifarnib/LPS vs LPS) LY6E (3 hr): −1.15
- Fold-change (tipifarnib/LPS vs LPS) MMP9 (3 hr): −1.07
- Fold-change (tipifarnib/LPS vs LPS) MX1 (3 hr): −1.07
- Fold-change (tipifarnib/LPS vs LPS) MYD88 (3 hr): −1.15
- Fold-change (tipifarnib/LPS vs LPS) NEXN (3 hr): 1.00
- Fold-change (tipifarnib/LPS vs LPS) NFKB2 (3 hr): 1.23
- Fold-change (tipifarnib/LPS vs LPS) PLAUR (3 hr): −1.23
- Fold-change (tipifarnib/LPS vs LPS) PTX3 (3 hr): −1.15
- Fold-change (tipifarnib/LPS vs LPS) S100A9 (3 hr): −1.15
- Fold-change (tipifarnib/LPS vs LPS) STAT1 (3 hr): −1.32
- Fold-change (tipifarnib/LPS vs LPS) TAP1 (3 hr): 1.15
- Fold-change (tipifarnib/LPS vs LPS) TAP2 (3 hr): −1.15
- Fold-change (tipifarnib/LPS vs LPS) TIMP3 (3 hr): −1.41
- Fold-change (tipifarnib/LPS vs LPS) TRIM22 (3 hr): 1.00
- Fold-change (tipifarnib/LPS vs LPS) UBE2L6 (3 hr): −1.07
- Fold-change (tipifarnib/LPS vs LPS) B2M (6 hr): −1.23
- Fold-change (tipifarnib/LPS vs LPS) C3AR1 (6 hr): −1.23
- Fold-change (tipifarnib/LPS vs LPS) CCL3 (6 hr): −1.07
- Fold-change (tipifarnib/LPS vs LPS) CCL4 (6 hr): 1.07
- Fold-change (tipifarnib/LPS vs LPS) CCND1 (6 hr): −1.15
- Fold-change (tipifarnib/LPS vs LPS) IER3 (6 hr): 1.15
- Fold-change (tipifarnib/LPS vs LPS) IFI16 (6 hr): −1.32
- Fold-change (tipifarnib/LPS vs LPS) IFIT1 (6 hr): −1.41
- Fold-change (tipifarnib/LPS vs LPS) IGFBP3 (6 hr): 1.00
- Fold-change (tipifarnib/LPS vs LPS) IL8 (6 hr): −1.15
- Fold-change (tipifarnib/LPS vs LPS) KCNK17 (6 hr): −1.32
- Fold-change (tipifarnib/LPS vs LPS) LGR7 (6 hr): −1.41
- Fold-change (tipifarnib/LPS vs LPS) MMP9 (6 hr): −1.41
- Fold-change (tipifarnib/LPS vs LPS) NEXN (6 hr): −1.41
- Fold-change (tipifarnib/LPS vs LPS) NFKB2 (6 hr): −1.07
- Fold-change (tipifarnib/LPS vs LPS) PTX3 (6 hr): −1.32
- Fold-change (tipifarnib/LPS vs LPS) S100A9 (6 hr): −1.07
- Fold-change (tipifarnib/LPS vs LPS) TIMP3 (6 hr): −1.23
- Fold-change (tipifarnib/LPS vs LPS) UBE2L6 (6 hr): −1.41
- Fold-change (tipifarnib/LPS vs LPS) ABCB8 (12 hr): −1.23
- Fold-change (tipifarnib/LPS vs LPS) CCL3 (12 hr): 1.23
- Fold-change (tipifarnib/LPS vs LPS) GNPNAT1 (12 hr): −1.41
- Fold-change (tipifarnib/LPS vs LPS) IER3 (12 hr): 1.00
- Fold-change (tipifarnib/LPS vs LPS) IFI16 (12 hr): −1.23
- Fold-change (tipifarnib/LPS vs LPS) IFIT1 (12 hr): −1.32
- Fold-change (tipifarnib/LPS vs LPS) IL1RN (12 hr): −1.15
- Fold-change (tipifarnib/LPS vs LPS) IL8 (12 hr): 1.32
- Fold-change (tipifarnib/LPS vs LPS) KCNK17 (12 hr): 1.00
- Fold-change (tipifarnib/LPS vs LPS) LAP3 (12 hr): −1.23
- Fold-change (tipifarnib/LPS vs LPS) LY6E (12 hr): 1.15
- Fold-change (tipifarnib/LPS vs LPS) MX1 (12 hr): 1.32
- Fold-change (tipifarnib/LPS vs LPS) MYD88 (12 hr): −1.23
- Fold-change (tipifarnib/LPS vs LPS) NEXN (12 hr): −1.15
- Fold-change (tipifarnib/LPS vs LPS) NFKB2 (12 hr): −1.32
- Fold-change (tipifarnib/LPS vs LPS) PTX3 (12 hr): −1.32
- Fold-change (tipifarnib/LPS vs LPS) STAT1 (12 hr): 1.00
- Fold-change (tipifarnib/LPS vs LPS) TAP1 (12 hr): −1.15
- Fold-change (tipifarnib/LPS vs LPS) TAP2 (12 hr): −1.32
- Fold-change (tipifarnib/LPS vs LPS) TIMP3 (12 hr): −1.15
- Fold-change (tipifarnib/LPS vs LPS) TRIM22 (12 hr): −1.07
- Fold-change (tipifarnib/LPS vs LPS) UBE2L6 (12 hr): −1.15
- Fold-change (tipifarnib/LPS vs LPS) ABCB8 (24 hr): −1.23
- Fold-change (tipifarnib/LPS vs LPS) B2M (24 hr): 1.15
- Fold-change (tipifarnib/LPS vs LPS) CCND1 (24 hr): −1.23
- Fold-change (tipifarnib/LPS vs LPS) IER3 (24 hr): 1.23
- Fold-change (tipifarnib/LPS vs LPS) IL1B (24 hr): −1.23
- Fold-change (tipifarnib/LPS vs LPS) IL8 (24 hr): −1.07
- Fold-change (tipifarnib/LPS vs LPS) LY6E (24 hr): −1.32
- Fold-change (tipifarnib/LPS vs LPS) MMP9 (24 hr): −1.41
- Fold-change (tipifarnib/LPS vs LPS) MX1 (24 hr): −1.32
- Fold-change (tipifarnib/LPS vs LPS) MYD88 (24 hr): −1.32
- Fold-change (tipifarnib/LPS vs LPS) TAP1 (24 hr): −1.23
- Fold-change (tipifarnib/LPS vs LPS) TAP2 (24 hr): −1.23
- Fold-change (tipifarnib/LPS vs LPS) TIMP3 (24 hr): 1.15
- Fold-change (tipifarnib/LPS vs LPS) UBE2L6 (24 hr): −1.41
- number of LPS-induced transcripts downregulated (out of 121 genes with at least […] induction by LPS at 2 time points, at least […] decrease at one or more time points): 34
